Experimental data from patent US20050020692A1, “Treatment of heaves” (priority 2003, published 2005).
Structures can show the parent of a compound that is named as a salt. Where two headings read alike, the source gives them in different places.

Assays:
[1] = type: physicochemical
Excerpt: The chemical and optical purities of all batches used for biological studies have been >98%. […] No polymorphs have been detected.

adrenergic β-2 receptors = assay: cAMP production in human PC3 cells; details: PC-3, read-out: EC50 for cAMP production
[2] = test system: Antigen-specific T-cell lines; assay: Antigen-specific T-cell lines: proliferation, apoptosis, cytokine secretion; type: cell-based, human
Protocol: Parallel lines were generated in the presence of propranolol. Cells were evaluated for proliferation, apoptosis, and cytokine secretion.

[3] = horse
[4] = test system: isolated human leukocytes (buffy coat); assay: A23187-stimulated histamine release from isolated human leukocytes; type: cell-based; details: for inhibition of release of the marker inflammatory mediator histamine: A23187 5 μM, 20 min/37° C., 4×10^−4 M to 10^−6 M
Protocol: In this study, histamine was the marker compound for inflammatory mediators that are released from pro-inflammatory cells. The inhibition of stimulated histamine release from isolated human leukocytes (buffy coat) by test articles was studied. The method is a modification of the methodology described by Nolte et al. (1988). Leukocytes were obtained from healthy volunteers and inflammatory mediator release was induced by incubation (20 min/37° C.) with the Ca-ionophore A23187 (5 μM) in the presence or absence of a test article. Histamine was analyzed by enzyme-immuno assays (E.I.A.), using commercially available kits and a microplate reader (MRX, Dynatech). The test articles were tested in each assay at five concentrations ranging from 4×10^−4 M to 10^−6 M, in duplicate. In the same experiment, a reference compound was tested in duplicate at eight concentrations to obtain an inhibition curve to validate the experiment (not shown here). Results: […]

[5] = test system: M-form phenolsulfotransferase (M-PST); assay: Sulfotransferase activity in horse liver cytosol / intestinal mucosa; type: in vitro ADME
Protocol: Method: The livers from recently slaughtered horses are homogenized and the cytosol is prepared by differential centrifugation. The protein concentration of the cytosolic preparation is determined by the Lowry method (Lowry O. H. et al.: Protein measurement with the foline phenol reagent. J. Biol. Chem. 1951, 193: 265-275). […] Cytosol from the livers is incubated at 15 °C. After removal of unmetabolized beta-2 agonist with ethyl acetate, free drug is released from the conjugate using sulfatase. The concentrations of beta-2 agonist enantiomers are analyzed by chiral HPLC assay.
Results from tests with intestinal mucosa yielded the same surprising results.

[6] = test system: isolated guinea pig tracheas; assay: Inhibition of airway smooth muscle contractions, isolated guinea pig tracheas; details: Cavia porcellus, read-out: pD2 (converted)
Protocol: The following study was performed in vitro, using isolated guinea pig tracheas. The airway smooth muscle tissues were contracted by carbachol or ovalbumin or histamine. […] Results: pD2 Values of the Enantiomers of Albuterol

[7] = test system: equine bronchial smooth muscle; assay: Carbachol-induced contractions of equine bronchial smooth muscle (hyperreactivity); set-up: species or system horse; details: 37° C.
Protocol: In this study, segments of equine bronchial smooth muscle are mounted on special holders and immersed in a physiologic solution containing glucose and aerated with 95% O2 and 5% CO2 at 37° C. Isometric tension is measured with force transducers and registered electronically. The effects of R-, RS- and S-albuterol on carbachol-induced contractions are studied.

pro-inflammatory cells = details: cited from earlier work
[8] = contractile stimulus Carbachol (10^-6 M)
[9] = contractile stimulus Histamine (10^-5 M)
[10] = contractile stimulus Ovalbumin (10-5 g/ml)

| SMILES | solubility in water [1] | EC50 (adrenergic β-2 receptors) | EC50 [6, 8] | EC50 [6, 9] | EC50 [6, 10] | inhibition of release of the marker inflammatory mediator histamine [4] | effect on equine bronchial smooth muscle [7] | also measured |
| --- | --- | --- | --- | --- | --- | --- | --- | --- |
| CC(C)(C)NC[C@H](O)c1ccc(O)c(CO)c1.Cl [R(−)-albuterol hydrochloride] | readily soluble | – | – | – | – | – | – | – |
| CC(C)(C)NCC(O)c1ccc(O)c(CO)c1 (racemic) [RS-albuterol] | – | 207 nM | – | – | – | – | – | influence on proliferation [2]: minimal influences; cytokine production ([2]; 10(−8) mol/L each isomer): no influence |
| CC(C)(C)NC[C@H](O)c1ccc(O)c(CO)c1 [R(−)-albuterol, (R)-[…]^1-[[(1,1-dimethylethyl)amino]methyl]-4-hydroxy-1,3-benzene-dimethanol, sulfate (2:1) (salt)] | – | 100 nM | 79.4 nM | 20 nM | 5.01 nM | Neither R(−)-albuterol nor S(+)-albuterol inhibited the release | causing bronchorelaxation | T-cell proliferation ([2]; 10(−7) mol/L, % of control): 61.1%±9.0%; IL-2 and IFN-gamma production ([2]; 10(−8) mol/L): inhibited; T-cell proliferation ([2]; 10(−8) mol/L): 77.0%±9.7%; inversion to S-albuterol [3]: no such inversion takes place; intestinal or hepatic metabolism by M-form phenolsulfotransferase [5]: not to undergo intestinal or hepatic metabolism |

Continued, in another order:

| solubility in water [1] | EC50 (adrenergic β-2 receptors) | EC50 [6, 8] | EC50 [6, 9] | EC50 [6, 10] | SMILES | inhibition of release of the marker inflammatory mediator histamine [4] | effect on equine bronchial smooth muscle [7] | also measured |
| --- | --- | --- | --- | --- | --- | --- | --- | --- |
| readily soluble | – | – | – | – | CC(C)(C)NC[C@H](O)c1ccc(O)c(CO)c1.CC(C)(C)NC[C@H](O)c1ccc(O)c(CO)c1.O=S(=O)(O)O [R(−)-albuterol sulfate] | – | – | – |
| – | 14000 nM | 79400 nM | 5010 nM | 31600 nM | CC(C)(C)NC[C@@H](O)c1ccc(O)c(CO)c1 [S(+)-albuterol] | Neither R(−)-albuterol nor S(+)-albuterol inhibited the release | causing bronchial hyperreactivity | influence on T-cell proliferation ([2]; S(+)-albuterol alone): No influence was observed; increase of release of histamine from leukocytes ([4]; at concentrations of 10 μM and higher): significantly and dose-dependently increased the release; facilitation of release of inflammatory mediators (pro-inflammatory cells): facilitating the release |
